Data as given in ChEMBL document CHEMBL2331210, “New 2-benzylsulfanyl-nicotinic acid based 1,3,4-oxadiazoles: their synthesis and biological evaluation” (2013).
≈ marks a conversion by molar mass, not a printed value.

Key:
Assay type in all cases: functional
[1] = tested on: Pseudomonas aeruginosa; experiment: Antimicrobial activity against Pseudomonas aeruginosa MTCC 2488 assessed as growth inhibition measured after overnight incubation by broth dilution method
[2] = tested on: Staphylococcus aureus; experiment: Antimicrobial activity against Staphylococcus aureus MTCC 96 assessed as growth inhibition measured after overnight incubation by broth dilution method
[3] = tested on: Escherichia coli; experiment: Antimicrobial activity against Escherichia coli MTCC 443 assessed as growth inhibition measured after overnight incubation by broth dilution method
[4] = tested on: Streptococcus pyogenes; experiment: Antimicrobial activity against Streptococcus pyogenes MTCC 442 assessed as growth inhibition measured after overnight incubation by broth dilution method
[5] = tested on: Aspergillus clavatus; experiment: Antimicrobial activity against Aspergillus clavatus MTCC 1323 assessed as growth inhibition measured after overnight incubation by broth dilution method
[6] = tested on: Mycobacterium tuberculosis; experiment: Antitubercular activity against Mycobacterium tuberculosis H37Rv assessed as growth inhibition after 12 to 28 days by L.J. agar MIC method
[7] = tested on: Candida albicans; experiment: Antimicrobial activity against Candida albicans MTCC 227 assessed as growth inhibition measured after overnight incubation by broth dilution method
[8] = tested on: Aspergillus niger; experiment: Antimicrobial activity against Aspergillus niger MTCC 282 assessed as growth inhibition measured after overnight incubation by broth dilution method

Row | Compound | MIC [1] [µg/mL] | MIC [2] [µg/mL] | MIC [3] [µg/mL] | MIC [4] [µg/mL] | MIC [5] [µg/mL] | growth inhibition (GI) [6] [%] | MIC ([6]; Mycobacterium tuberculosis, H37Rv) [µg/mL] | MIC [7] [µg/mL] | MIC [8] [µg/mL]
1 | CC1(C)S[C@@H]2[C@H](NC(=O)[C@H](N)c3ccccc3)C(=O)N2[C@H]1C(=O)O [AMPICILLIN] | 100 (≈ 286 µM) | 250 (≈ 715 µM) | 100 (≈ 286 µM) | 100 (≈ 286 µM) |  |  |  |  | 
2 | Cc1ccc2sc(-c3ccc(NC(=O)CCl)cc3)nc2c1 | 100 (≈ 316 µM) | 250 (≈ 789 µM) | 125 (≈ 395 µM) | 100 (≈ 316 µM) | 500 (≈ 1580 µM) | 99 | 200 (≈ 631 µM) | 500 (≈ 1580 µM) | 1000 (≈ 3160 µM)
